# Values quoted from earlier work in patent US10188628B1, “Release composition for derivatives of Cannabaceae” (priority 2016, dated 2019).
# Columns and labels:
# [1] = after oral administration
# [2] = not given; remark: listed apart in the source
smiles,measurement,setting,value
"CCCCCc1cc(O)c2c(c1)OC(C)(C)[C@@H]1CCC(C)=C[C@@H]21 [Dronabinol, Δ^9-tetrahydrocannabinol]",absorbed,after a single oral dose,90-95%
same,maximal plasma levels,oral dosing of 20 mg in a sesame oil formulation,around 10 ng/ml
same,administered dose reaching systemic circulation,"oral, first pass hepatic metabolism and high lipid solubility",10-20%
same,appetite stimulant effect may continue,[1],≥ 24 h
same,duration of action for psychoactive effects,[1],4 to 6 h
same,onset of action,[1],0.5 to 1 h
same,peak effect,[1],2 to 4 h
same,stability to storage and stress conditions,"[2]; heat, light",thermolabile and photolabile
same,biopharmaceutical classification system (BCS) class,[2]; low aqueous solubility and high permeability,Class II
